Results as given in US11104690B2, “Indazole derivatives useful as inhibitors of diacylglyceride O-acyltransferase 2” (Merck Sharp & Dohme Corp., priority 2016, dated 2021).

Each molecule was assayed against Human DGAT2 (Homo sapiens (Human), UniProt Q96PD7) (assay: DGAT2 Enzymatic Activity Assay (triolein formation, LC/MS/MS)). Details: hDGAT2 Sf-9 membrane prep; 25 μM diolein, 10 μM oleoyl-CoA; room temperature.
Assay type: biochemical
Method: Sf-9 insect cells were maintained in Grace's insect cell culture medium with 10% heated-inactivated fetal bovine serum, 1% Pluronic F-68 and 0.14 μg/m Kanamycine sulfate in Erlenmeyer flasks at 28° C. in a shaker incubator. After infection with untagged hDGAT2 baculovirus at multiplicity of infection (MOI) 0.1 for 48 hours, cells were harvested. Cell pellets were suspended in buffer containing 10 mM Tris-HC (pH 7.5), 1 mM EDTA (pH 8.0), 250 mM sucrose and Complete Protease Inhibitor Cocktail (Roche Diagnostics Corp., Indianapolis, Ill.), and sonicated on ice. Membrane fractions were isolated by ultracentrifugation (100,000×g pellet), resuspended in the same buffer, and frozen (−80° C.) for later use. The protein concentration was determined with the BCA Protein Assay kit (Pierce Biotechnology Inc., Rockford, Ill.). Expression of protein levels was analyzed by immunoblotting with goat polyclonal DGAT2 antibody C-15 and donkey anti-goat IgG HRP (Santa Cruz Biotechnology, Inc., Santa Cruz, Calif.) followed by detection with ECL reagent (GE Healthcare, Piscataway, N.J.).
LC/MS/MS analyses were performed using Thermal Fisher's LX4-TSQ Vantage system. This system consists of an Agilent binary high-performance liquid chromatography (HPLC) pumps and a TSQ Vantage triple quadrupole MS/MS instrument. For each sample, 2 μL samples from the top organic layer of in-plate liquid-liquid extraction were injected onto a Thermo Betabasic C4 column (2.1 mm×20 mm, 5 μm particle size). The samples were then eluted using the following conditions; mobile phase: MeOH/water with 0.1% ammonium format=92/8 (v/v), flow rate: 1 mL/min, temperature: 25 C. Data was acquired in positive mode using a heated electrospray ionization (HESI) interface. The operational parameters for the TSQ Vantage MS/MS instrument were a spray voltage of 3000 V, capillary temperature of 280° C., vaporizer temperature 400° C., shealth gas 60 arbitrary unit, Aux gas 40 arbitrary units, S-lens 113 and collision gas 0.16 Pascals. […] (SRM) chromatograms of triolein (Q1: 902.9>Q3:602.3) and internal standard ([…]) were collected for 40 sec. The peak area was integrated by Xcalibur Quan software. The ratio between the triolein generated in the reaction and spiked in internal standard was used to generate percentage inhibition and IC50 values. Compound percentage inhibition was calculated by the following formula: Inhibition %=1−[(compound response−low control)/(high control−low control)]×100%. Potent compounds were titrated and IC50 were calculated by 4 parameter sigmoidal curve fitting formula.
DGAT2 activity was determined by measuring the amount of enzymatic product triolein (1,2,3-Tri(cis-9-octadecenoyl)glycerol) using the membrane prep mentioned above. The assay was carried out in deep well 384 plates in a final volume of 40 μL at room temperature. The assay mixture contained the following: assay buffer (100 mM Tris.Cl, pH 7.0, 20 mM MgCl2, 5% ethanol), 25 μM of diolein, 10 μM of oleoyl-CoA and 10 ng/μL of DGAT2 membrane.

Human DGAT2, sequence (Q96PD7 whole entry): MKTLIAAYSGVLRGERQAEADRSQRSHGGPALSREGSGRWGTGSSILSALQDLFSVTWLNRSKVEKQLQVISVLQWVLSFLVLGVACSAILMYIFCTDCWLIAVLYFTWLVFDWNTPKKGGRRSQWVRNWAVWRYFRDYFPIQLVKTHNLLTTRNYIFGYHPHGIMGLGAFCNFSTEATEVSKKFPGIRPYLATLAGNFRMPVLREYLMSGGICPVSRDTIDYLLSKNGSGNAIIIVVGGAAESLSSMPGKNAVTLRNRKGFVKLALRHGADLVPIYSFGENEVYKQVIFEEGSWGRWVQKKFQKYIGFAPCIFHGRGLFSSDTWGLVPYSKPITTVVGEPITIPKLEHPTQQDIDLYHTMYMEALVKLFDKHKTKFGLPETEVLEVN

SMILES | IC50 [nM]
CC1(NC(=O)c2ccc3c(-c4cccc(-n5cccn5)c4)nn(-c4ccc(F)cc4)c3c2)CCS(=O)(=O)C1 (racemic) [Example 165, 1-(4-fluorophenyl)-N-(3-methyl-1,1-dioxidotetrahydrothiophen-3-yl)-3-[3-(1H-pyrazol-1-yl)phenyl]-1H-indazole-6-carboxamide] | 7
N#Cc1cccc(-c2nn(-c3ccc(F)cn3)c3cc(C(=O)N[C@H]4CCS(=O)(=O)C4)ccc23)c1 [177-B] | 86
O=C(NC1CCS(=O)(=O)C1)c1ccc2c(-c3cncnc3)nn(-c3ccc(F)cc3)c2c1 (single isomer, unassigned) [Example 133-A, N-(1,1-dioxidotetrahydrothiophen-3-yl)-1-(4-fluorophenyl)-3-pyrimidin-5-yl-1H-indazole-6-carboxamide] | 846
Cn1nnc2ccc(-c3nn(-c4ccc(F)cc4)c4cc(C(=O)NC5(C)CCS(=O)(=O)C5)ccc34)cc21 (racemic) [Example 163, 1-(4-fluorophenyl)-3-(1-methyl-1H-benzotriazol-6-yl)-N-(3-methyl-1,1-dioxidotetrahydrothiophen-3-yl)-1H-indazole-6-carboxamide] | 340
O=C(NCc1ccc(C(F)(F)F)nc1)c1ccc2c(-c3ccccc3Cl)nn(-c3ccc(F)cc3)c2c1 [Example 18, 3-(2-chlorophenyl)-1-(4-fluorophenyl)-N-{[6-(trifluoromethyl)pyridin-3-yl]methyl}-1H-indazole-6-carboxamide] | 64
CC(NC(=O)c1ccc2c(-c3ccccc3Cl)nn(-c3ccc(F)cc3)c2c1)c1nncn1C (racemic) [Example 36, 3-(2-chlorophenyl)-1-(4-fluorophenyl)-N-[1-(4-methyl-4H-1,2,4-triazol-3-yl)ethyl]-1H-indazole-6-carboxamide] | 889
CC1(NC(=O)c2ccc3c(-c4cc(C(N)=O)ccc4Cl)nn(-c4ccc(F)cc4)c3c2)CCS(=O)(=O)C1 (single isomer, unassigned) [Example 121-A, 3-(5-carbamoyl-2-chlorophenyl)-1-(4-fluorophenyl)-N-(3-methyl-1,1-dioxidotetrahydrothiophen-3-yl)-1H-indazole-6-carboxamide] | 132
O=C(N[C@@H]1CCC[C@@H]1O)c1ccc2c(-c3ccccc3Cl)nn(-c3ccc(F)cc3)c2c1 [Example 115, 3-(2-chlorophenyl)-1-(4-fluorophenyl)-N-[(1R,2S)-2-hydroxycyclopentyl]-1H-indazole-6-carboxamide] | 578
O=C(NC1(c2ccc(Br)cc2)CC(O)C1)c1ccc2c(-c3ccccc3Cl)nn(-c3ccc(F)cc3)c2c1 (stereo not shown) [Example 108, N-[1-(4-bromophenyl)-3-hydroxycyclobutyl]-3-(2-chlorophenyl)-1-(4-fluorophenyl)-1H-indazole-6-carboxamide] | 393
CCC(CO)NC(=O)c1ccc2c(-c3ccccc3Cl)nn(-c3ccc(F)cc3)c2c1 (racemic) [Example 65, 3-(2-chlorophenyl)-1-(4-fluorophenyl)-N-[1-(hydroxyinethyl)propyl]-1H-indazole-6-carboxamide] | 170
O=C(NC1CCS(=O)(=O)C1)c1ccc2c(-c3cccc(Cl)c3Cl)nn(-c3ccc(F)cc3)c2c1 (single isomer, unassigned) [Example 130-A, 3-(2,3-dichlorophenyl)-N-(1,1-dioxidotetrahydro-thiophen-3-yl)-1-(4-fluorophenyl)-1H-indazole-6-carboxamide] | 3.6
O=C(NC1CCS(=O)(=O)C1)c1ccc2c(-c3ccccc3Cl)nn(Cc3ccc(Cl)cc3)c2c1 (stereo not shown) [Example 168, 1-(4-chlorobenzyl)-3-(2-chlorophenyl)-N-(1,1-dioxidotetrahydrothiophen-3-yl)-1H-indazole-6-carboxamide] | 455
CC1(NC(=O)c2ccc3c(-c4cccc(OC(F)F)c4)nn(-c4ccc(F)cc4)c3c2)CCS(=O)(=O)C1 (single isomer, unassigned) [Example 143-A, 3-[3-(difluoromethoxy)phenyl]-1-(4-fluorophenyl)-N-(3-methyl-1,1-dioxidotetrahydrothiophen-3-yl)-1H-indazole-6-carboxamide] | 1.6
N#Cc1ccc(Cl)c(-c2nn(-c3ccc(F)cn3)c3cc(C(=O)NC4CCS(=O)(=O)C4)ccc23)c1 (single isomer, unassigned) [Example 127-A, 3-(2-chloro-5-cyanophenyl)-N-(1,1-dioxidotetrahydrothiophen-3-yl)-1-(5-fluoropyridin-2-yl)-1H-indazole-6-carboxamide] | 8.2
COc1ncc(Cl)cc1-c1nn(-c2ccc(F)cc2)c2cc(C(=O)NC3(C)CCS(=O)(=O)C3)ccc12 (single isomer, unassigned) [Example 142-A, 3-(5-chloro-2-methoxypyridin-3-yl)-1-(4-fluorophenyl)-N-(3-methyl-1,1-dioxidotetrahydrothiophen-3-yl)-1H-indazole-6-carboxamide] | 430
O=C(NC1CCS(=O)(=O)C1)c1ccc2c(-c3ccccc3Cl)nn(Cc3ccccc3)c2c1 (racemic) [Example 167, (±)-1-Benzyl-3-(2-chlorophenyl-N-(1,1-dioxidotetrahydrothiophen-3-yl)-1-indazole-6-carboxamide] | 383
CC(c1cc(-c2ccccc2)[nH]n1)N(C)C(=O)c1ccc2c(-c3ccccc3Cl)nn(-c3ccc(F)cc3)c2c1 (racemic) [Example 27, 3-(2-chlorophenyl)-1-(4-fluorophenyl)-N-methyl-N-[1-(5-phenyl-1H-pyrazol-3-yl)ethyl]-1H-indazole-6-carboxamide] | 301
CO[C@@H]1C[C@H](NC(=O)c2ccc3c(-c4ccccc4Cl)nn(-c4ccc(F)cc4)c3c2)[C@H](O)[C@H](C)O1 [Example 111, 3-(2-chlorophenyl)-1-(4-fluorophenyl)-N-((2S,3S,4S,6S)-3-hydroxy-6-methoxy-2-methyltetrahydro-2H-pyran-4-yl)-1H-indazole-6-carboxamide] | 194
O=C(NC1CCS(=O)(=O)CC1)c1ccc2c(-c3ccccc3Cl)nn(-c3ccc(F)cc3)c2c1 [Example 24, 3-(2-chlorophenyl)-N-(1,1-dioxidotetrahydro-2H-thiopyran-4-yl)-1-(4-fluorophenyl)-1H-indazole-6-carboxamide] | 61
COc1ccc(-c2nn(-c3ccc(F)cc3)c3cc(C(=O)NC4(C)CCS(=O)(=O)C4)ccc23)cn1 (single isomer, unassigned) [Example 155-A, 1-(4-fluorophenyl)-3-(6-methoxypyridin-3-yl)-N-(3-methyl-1,1-dioxidotetrahydrothiophen-3-yl)-1H-indazole-6-carboxamide] | 353
COc1cccc(-n2nc(-c3ccccc3Cl)c3ccc(C(=O)NC4(C)CCS(=O)(=O)C4)cc32)n1 (racemic) [Example 186, 3-(2-chlorophenyl)-1-(6-methoxypyridin-2-yl)-N-(3-methyl-1,1-dioxidotetrahydrothiophen-3-yl)-1H-indazole-6-carboxamide] | 322
O=C(NCc1cnc(C(F)(F)F)nc1)c1ccc2c(-c3ccccc3Cl)nn(-c3ccc(F)cc3)c2c1 [Example 49, 3-(2-chlorophenyl)-1-(4-fluorophenyl)-N-{[2-(trifluoromethyl)pyrimidin-5-yl]methyl}-1H-indazole-6-carboxamide] | 79
O=C(NC1CC[S+]([O-])C1)c1ccc2c(-c3ccccc3Cl)nn(-c3ccc(F)cc3)c2c1 (single isomer, unassigned) [Example 58-A, 3-(2-chlorophenyl)-1-(4-fluorophenyl)-N-(1-oxidotetrahydrothiophen-3-yl)-1H-indazole-6-carboxamide] | 668
C[C@H](CO)NC(=O)c1ccc2c(-c3ccccc3Cl)nn(-c3ccc(F)cc3)c2c1 [Example 79, 3-(2-chlorophenyl)-1-(4-fluorophenyl)-N-[(1R)-hydroxy-1-methylethyl]-1H-indazole-6-carboxamide] | 772
O=C(NC1CC[S+]([O-])C1)c1ccc2c(-c3ccccc3Cl)nn(-c3ccc(F)cc3)c2c1 (single isomer, unassigned) [Example 58-B, 3-(2-chlorophenyl)-1-(4-fluorophenyl)-N-(1-oxidotetrahydrothiophen-3-yl)-1H-indazole-6-carboxamide] | 608
